Experimental data published in patent publication US11724992B2 (Novartis AG, priority 2017, dated 2023).
pIC50: −log10 of the molar value. Like-named read-outs stand apart in the source and are kept apart here.

Test system: IL-1β production in PMA-differentiated THP-1 cells
Experiment: IL-1β production in PMA-differentiated THP-1 cells stimulated with gramicidin (hTHP-1 assay, 2% fetal bovine serum; Procedures 1-3)
Assay type: cell-based, human
Details: class symbols, read-out: hTHP-1 IC50 (Average IC50 of compounds in hTHP-1 assay)
Method in brief: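 Readout is HTRF of IL-1β in cell-free supernatant after 2 h gramicidin (5 μM) challenge. Cells: THP-1 differentiated with PMA 20 ng/ml for 16-18 h, plated 50,000/well in 2% FBS RPMI, exposed to compound 1 h beforehand at final 100–0.0017 μM, DMSO 0.37%.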

[1] = hTHP-1 assay containing 2% fetal bovine serum

| SMILES | pIC50 [1] | pIC50 (Homo sapiens, THP-1, hTHP-1 assay containing 2% fetal bovine serum) |
| --- | --- | --- |
| CC1CCc2cc3c(c(NC(=O)N=S(N)(=O)c4cnc(C(C)(C)O)s4)c21)CCC3 (stereo not shown) [Example 292, 2-(2-Hydroxypropan-2-yl)-N′-((3-methyl-1,2,3,5,6,7-hexahydro-s-indacen-4-yl)carbamoyl)thiazole-5-sulfonimidamide] | 6.70 to 7.40 | – |
| COC(C)(C)c1ncc(S(N)(=O)=NC(=O)Nc2c3c(cc4c2CCC4)CCC3)s1 (stereo not shown) [Example 295, N′-((1,2,3,5,6,7-hexahydro-s-indacen-4-yl)carbamoyl)-2-(2-methoxypropan-2-yl)thiazole-5-sulfonimidamide] | – | 6.70 to 7.40 |
| [2H]C([2H])([2H])C(O)(c1ncc([S@](N)(=O)=NC(=O)Nc2c3c(cc4c2CCC4)CCC3)s1)C([2H])([2H])[2H] [Example 393, (R)-N′-((1,2,3,5,6,7-hexahydro-s-indacen-4-yl)carbamoyl)-2-(2-hydroxypropan-2-yl-1,1,1,3,3,3-d6)thiazole-5-sulfonimidamide] | 7.40 to 8.10 | – |
| [2H]C([2H])([2H])C(O)(c1ncc([S@@](N)(=O)=NC(=O)Nc2c3c(cc4c2CCC4)CCC3)s1)C([2H])([2H])[2H] [Example 394, (S)-N′-((1,2,3,5,6,7-hexahydro-s-indacen-4-yl)carbamoyl)-2-(2-hydroxypropan-2-yl-1,1,1,3,3,3-d6)thiazole-5-sulfonimidamide] | 6.00 to 6.70 | – |
